Measurements taken from patent publication US20230167118A1, “DEGRADATION OF BRUTON'S TYROSINE KINASE (BTK) BY CONJUGATION OF BTK INIDBITORS WITH E3 LIGASE LIGAND AND METHODS OF USE” (BEIGENE, LTD., priority 2020, published 2023).
pIC50: −log10 of the molar value.

Tests used:
[1] = target: T1, BTK (Homo sapiens, UniProt Q06187); test: Cell Degradation: BTK degradation in TMD-8 cells, HTRF assay; format: cell-based; conditions: 6 h treatment, IC50 (DC50) of BTK degradation
T1 construct: High control=Cell group with added DMSO and without compound, indicating microplate readings without BTK degradation; endogenous in cells; host or cells: TMD-8 cells
Outline: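 TMD-8 cells treated 6 h with 8-dose 6-fold dilutions in 0.2% DMSO, then lysed and BTK quantified by HTRF (665/620 nm). Degradation % normalised to high/low controls; DC50 from four-parameter fit, Dmax as maximal degradation.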

[2] = test system: HEK-293 cells; test: HEK-293 Cytotoxicity Assay (CellTiter-Glo); format: cell-based; conditions: Homo sapiens, HEK293, 72 h incubation, CellTiter-Glo luminescence
Outline: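 HEK-293 cells treated 72 h with 8 concentrations (4-fold dilutions, 0.2% DMSO final). Viability read by CellTiter-Glo luminescence; IC50 from four-parameter logistic fit of % inhibition.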

T1 sequence (Q06187 whole entry): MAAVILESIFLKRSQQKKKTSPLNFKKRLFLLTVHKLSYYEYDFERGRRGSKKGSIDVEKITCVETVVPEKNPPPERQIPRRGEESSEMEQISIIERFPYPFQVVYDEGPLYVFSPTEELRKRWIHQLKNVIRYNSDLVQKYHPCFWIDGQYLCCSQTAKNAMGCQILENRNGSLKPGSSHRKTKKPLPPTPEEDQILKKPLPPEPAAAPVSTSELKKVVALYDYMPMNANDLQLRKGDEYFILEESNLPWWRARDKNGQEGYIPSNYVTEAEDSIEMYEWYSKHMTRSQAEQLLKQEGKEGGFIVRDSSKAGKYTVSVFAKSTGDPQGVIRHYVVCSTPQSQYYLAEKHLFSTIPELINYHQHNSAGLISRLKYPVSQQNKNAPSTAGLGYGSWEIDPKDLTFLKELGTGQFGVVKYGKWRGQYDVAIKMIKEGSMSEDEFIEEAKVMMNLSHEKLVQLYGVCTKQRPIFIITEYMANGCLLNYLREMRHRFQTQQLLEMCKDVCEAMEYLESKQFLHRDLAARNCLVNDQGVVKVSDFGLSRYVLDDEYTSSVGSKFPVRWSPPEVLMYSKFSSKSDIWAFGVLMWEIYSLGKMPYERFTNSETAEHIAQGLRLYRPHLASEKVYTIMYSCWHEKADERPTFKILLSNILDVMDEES

| SMILES | DC50 [1] | pIC50 [2] |
| --- | --- | --- |
| Cc1cc(-c2ncnc3[nH]c(-c4c(C)nn(C5CCN(CCNCC6CCN(c7ccc(N8CCC(=O)NC8=O)cc7)CC6)CC5)c4C)cc23)ccc1[C@@H](C)NC(=O)c1nc(C(C)(C)C)no1 [Example 175, (R)-3-(tert-butyl)-N-(1-(4-(6-(1-(1-(2-(((1-(4-(2,4-dioxotetrahydropyrimidin-1(2H)-yl)phenyl)piperidin-4-yl)methyl)amino)ethyl)piperidin-4-yl)-3,5-dimethyl-1H-pyrazol-4-yl)-7H-pyrrolo[2,3-d]pyrimidin-4-yl)-2-methylphenyl)ethyl)-1,2,4-oxadiazole-5-carboxamide] | 1.97 nM | 5.13 |
| Cc1cc(-c2ncnc3[nH]c(-c4ccc(N5CCN(CC6CCN(c7ccc(N8CCC(=O)NC8=O)cc7)CC6)CC5)nc4)cc23)ccc1[C@H](C)NC(=O)c1nc(C(C)(C)C)no1 [Example 148, (S)-3-(tert-butyl)-N-(1-(4-(6-(6-(4-((1-(4-(2,4-dioxotetrahydropyrimidin-1(2H)-yl)phenyl)piperidin-4-yl)methyl)piperazin-1-yl)pyridin-3-yl)-7H-pyrrolo[2,3-d]pyrimidin-4-yl)-2-methylphenyl)ethyl)-1,2,4-oxadiazole-5-carboxamide] | 134 nM | 6.56 |
| Cc1cc(N2CCC(CN3CCN(c4ccc(-c5cc6c(-c7ccc([C@@H](C)NC(=O)c8nc(C(C)(C)C)no8)c(F)c7)ncnc6[nH]5)cn4)CC3)CC2)ccc1N1CCC(=O)NC1=O [Example 52, (R)-3-(tert-butyl)-N-(1-(4-(6-(6-(4-((1-(4-(2,4-dioxotetrahydropyrimidin-1(2H)-yl)-3-methylphenyl)piperidin-4-yl)methyl)piperazin-1-yl)pyridin-3-yl)-7H-pyrrolo[2,3-d]pyrimidin-4-yl)-2-fluorophenyl)ethyl)-1,2,4-oxadiazole-5-carboxamide] | 1.7 nM | < 5.00 |
| Cc1cc(-c2ncnc3[nH]c(-c4ccc(N5CCN([C@H]6C[C@@H](c7ccc(O[C@H]8CCC(=O)NC8=O)cc7)C6)CC5)nc4)cc23)ccc1[C@@H](C)NC(=O)c1nc(C(C)(C)C)no1 [Example 191, 3-(tert-butyl)-N-((R)-1-(4-(6-(6-(4-((1R,3s)-3-(4-(((S)-2,6-dioxopiperidin-3-yl)oxy)phenyl)cyclobutyl)piperazin-1-yl)pyridin-3-yl)-7H-pyrrolo[2,3-d]pyrimidin-4-yl)-2-methylphenyl)ethyl)-1,2,4-oxadiazole-5-carboxamide] | 1.59 nM | < 5.00 |
| Cc1cc(-c2ncnc3[nH]c(-c4ccc(N5CCN(CCC6CCN(c7ccc([C@H]8CCC(=O)NC8=O)cc7)CC6)CC5)nc4)cc23)ccc1[C@@H](C)NC(=O)c1nc(C(C)(C)C)no1 [Example 53, 3-(tert-butyl)-N-((R)-1-(4-(6-(6-(4-(2-(1-(4-((R)-2,6-dioxopiperidin-3-yl)phenyl)piperidin-4-yl)ethyl)piperazin-1-yl)pyridin-3-yl)-7H-pyrrolo[2,3-d]pyrimidin-4-yl)-2-methylphenyl)ethyl)-1,2,4-oxadiazole-5-carboxamide] | > 2000 nM | < 5.00 |
| Cc1cc(-c2ncnc3[nH]c(-c4ccc(C5CCN(CCC6CCN(c7ccc(N8CCC(=O)NC8=O)c(C)c7)CC6)CC5)cc4)cc23)ccc1CNC(=O)c1nc(C(C)(C)C)no1 [Example 22, 3-(tert-butyl)-N-(4-(6-(4-(1-(2-(1-(4-(2,4-dioxotetrahydropyrimidin-1(2H)-yl)-3-methylphenyl)piperidin-4-yl)ethyl)piperidin-4-yl)phenyl)-7H-pyrrolo[2,3-d]pyrimidin-4-yl)-2-methylbenzyl)-1,2,4-oxadiazole-5-carboxamide] | 2.3 nM | 5.81 |
| Cc1c([C@@H](C)NC(=O)c2nc(C(C)(C)C)no2)ccc(-c2ncnc3[nH]c(-c4ccc(N5CCN(CC6CCN(c7ccc(N8CCC(=O)NC8=O)cc7)CC6)CC5)cc4)cc23)c1F [Example 78, (R)-3-(tert-butyl)-N-(1-(4-(6-(4-(4-((1-(4-(2,4-dioxotetrahydropyrimidin-1(2H)-yl)phenyl)piperidin-4-yl)methyl)piperazin-1-yl)phenyl)-7H-pyrrolo[2,3-d]pyrimidin-4-yl)-3-fluoro-2-methylphenyl)ethyl)-1,2,4-oxadiazole-5-carboxamide] | 0.88 nM | < 5.00 |
| Cc1cc(-c2ncnc3[nH]c(-c4ccc(N5CCN([C@H]6C[C@@H](c7ccc(O[C@@H]8CCC(=O)NC8=O)cc7)C6)CC5)nc4)cc23)ccc1[C@@H](C)NC(=O)c1nc(C(C)(C)C)no1 [Example 192, 3-(tert-butyl)-N-((R)-1-(4-(6-(6-(4-((1S,3s)-3-(4-(((R)-2,6-dioxopiperidin-3-yl)oxy)phenyl)cyclobutyl)piperazin-1-yl)pyridin-3-yl)-7H-pyrrolo[2,3-d]pyrimidin-4-yl)-2-methylphenyl)ethyl)-1,2,4-oxadiazole-5-carboxamide] | > 2000 nM | < 5.00 |
| C[C@@H](NC(=O)c1noc(C(C)(C)C)n1)c1ccc(-c2ncnc3[nH]c(-c4ccc(N5CCN(CC6CCN(c7ccc(N8CCC(=O)NC8=O)cc7)CC6)CC5)nc4)cc23)cc1CO [Example 144, (R)-5-(tert-butyl)-N-(1-(4-(6-(6-(4-((1-(4-(2,4-dioxotetrahydropyrimidin-1(2H)-yl)phenyl)piperidin-4-yl)methyl)piperazin-1-yl)pyridin-3-yl)-7H-pyrrolo[2,3-d]pyrimidin-4-yl)-2-(hydroxymethyl)phenyl)ethyl)-1,2,4-oxadiazole-3-carboxamide] | 0.26 nM | < 5.00 |
| Cc1cc(-c2ncnc3[nH]c(-c4ccc(C5CCN(CC6CN(c7ccc(N8CCC(=O)NC8=O)cc7)C6)CC5)cc4)cc23)ccc1CNC(=O)c1nc(C(C)(C)C)no1 [Example 5, 3-(tert-butyl)-N-(4-(6-(4-(1-((1-(4-(2,4-dioxotetrahydropyrimidin-1(2H)-yl)phenyl)azetidin-3-yl)methyl)piperidin-4-yl)phenyl)-7H-pyrrolo[2,3-d]pyrimidin-4-yl)-2-methylbenzyl)-1,2,4-oxadiazole-5-carboxamide] | 1 nM | 5.53 |
| Cc1cc(-c2ncnc3[nH]c(-c4ccc(C5CCN(CC6CCN(c7cc8c(cc7F)C(=O)N(C7CCC(=O)NC7=O)C8=O)CC6)CC5)cc4)cc23)ccc1CNC(=O)c1nc(C(C)(C)C)no1 (centres unmarked) [Example 2, 3-(tert-butyl)-N-(4-(6-(4-(1-((1-(2-(2,6-dioxopiperidin-3-yl)-6-fluoro-1,3-dioxoisoindolin-5-yl)piperidin-4-yl)methyl)piperidin-4-yl)phenyl)-7H-pyrrolo[2,3-d]pyrimidin-4-yl)-2-methylbenzyl)-1,2,4-oxadiazole-5-carboxamide] | 1.75 nM | < 5.00 |
| COc1cc(N2CCC(CN3CCN(c4ccc(-c5cc6c(-c7ccc([C@@H](C)NC(=O)c8nc(C(C)(C)C)no8)c(C)c7)ncnc6[nH]5)cc4)CC3)CC2)ccc1N1CCC(=O)NC1=O [Example 45, (R)-3-(tert-butyl)-N-(1-(4-(6-(4-(4-((1-(4-(2,4-dioxotetrahydropyrimidin-1(2H)-yl)-3-methoxyphenyl)piperidin-4-yl)methyl)piperazin-1-yl)phenyl)-7H-pyrrolo[2,3-d]pyrimidin-4-yl)-2-methylphenyl)ethyl)-1,2,4-oxadiazole-5-carboxamide] | 1.8 nM | < 5.00 |
| Cc1c([C@@H](C)NC(=O)c2noc(C(C)(C)C)n2)ccc(-c2ncnc3[nH]c(-c4ccc(N5CCN(CC6CCN(c7ccc(N8CCC(=O)NC8=O)cc7)CC6)CC5)cn4)cc23)c1F [Example 127, (R)-5-(tert-butyl)-N-(1-(4-(6-(5-(4-((1-(4-(2,4-dioxotetrahydropyrimidin-1(2H)-yl)phenyl)piperidin-4-yl)methyl)piperazin-1-yl)pyridin-2-yl)-7H-pyrrolo[2,3-d]pyrimidin-4-yl)-3-fluoro-2-methylphenyl)ethyl)-1,2,4-oxadiazole-3-carboxamide] | 0.42 nM | < 5.00 |
| C[C@@H](NC(=O)c1nc(C(C)(C)C)no1)c1ccc(-c2ncnc3[nH]c(-c4ccc(N5CCN(CC6CCN(c7ccc(N8CCC(=O)NC8=O)cc7)CC6)CC5)cn4)cc23)cc1F [Example 154, (R)-3-(tert-butyl)-N-(1-(4-(6-(5-(4-((1-(4-(2,4-dioxotetrahydropyrimidin-1(2H)-yl)phenyl)piperidin-4-yl)methyl)piperazin-1-yl)pyridin-2-yl)-7H-pyrrolo[2,3-d]pyrimidin-4-yl)-2-fluorophenyl)ethyl)-1,2,4-oxadiazole-5-carboxamide] | 0.79 nM | < 5.00 |
| Cc1cc(-c2ncnc3[nH]c(-c4ccc(N5CCN(CC6CCN(c7ccc(C8CCC(=O)NC8=O)cc7)C6)CC5)cc4)cc23)ccc1[C@@H](C)NC(=O)c1nc(C(C)(C)C)no1 (stereo partly drawn) [Example 143, 3-(tert-butyl)-N-((1R)-1-(4-(6-(4-(4-((1-(4-(2,6-dioxopiperidin-3-yl)phenyl)pyrrolidin-3-yl)methyl)piperazin-1-yl)phenyl)-7H-pyrrolo[2,3-d]pyrimidin-4-yl)-2-methylphenyl)ethyl)-1,2,4-oxadiazole-5-carboxamide] | 8.42 nM | < 5.00 |
| Cc1nn(C2CCN(CC3CCN(c4ccc(N5CCC(=O)NC5=O)cc4)CC3)CC2)c(C)c1-c1cc2c(-c3cc(CO)c([C@@H](C)NC(=O)c4nc(C(C)(C)C)no4)cc3F)ncnc2[nH]1 [Example 139, (R)-3-(tert-butyl)-N-(1-(4-(6-(1-(1-((1-(4-(2,4-dioxotetrahydropyrimidin-1(2H)-yl)phenyl)piperidin-4-yl)methyl)piperidin-4-yl)-3,5-dimethyl-1H-pyrazol-4-yl)-7H-pyrrolo[2,3-d]pyrimidin-4-yl)-5-fluoro-2-(hydroxymethyl)phenyl)ethyl)-1,2,4-oxadiazole-5-carboxamide] | 0.5 nM | < 5.00 |
